The assay relates to Plasmodium berghei. Description: Luciferase/luciferin-expressing antifolate-resistant parasites were used to infect a culture of HepG2 cells that were pre-incubated with compounds. Infected hepatocytes emit light due to the luciferase reaction. Assay results are presented as the percent inhibition of light emission compared to control. […]. Format: functional. As to conditions: sporozoite; for IC90: read-out: LUCIFERASE INFECTION ASSAY - IC90.

Setting [1] is: read-out: LUCIFERASE INFECTION ASSAY - IC50.

One may read the IC50 as the point on the concentration scale where inhibition reaches its midpoint. As a reminder, the IC90 is the point of the concentration-response curve where the effect stands at 90%.

For the molecule `COc1ccc(Cl)cc1NC(=O)CN(C)c1nc(-c2cccnc2)nc2sc3c(c12)CCCC3`, the IC90 was greater than 10 µM. The IC50 under setting [1] is greater than 10 µM.

In the case of `CCOC(=O)/C(=N\Nc1cc(C(F)(F)F)ccc1Cl)N1CCN(C(c2ccccc2)c2ccccc2)CC1`, the IC90 is greater than 10 µM. Moreover, the IC50 under setting [1] was 4.97 µM.

Regarding `CSc1sc(-c2ccnc(SCc3cccc(F)c3)n2)c2c1C(=O)CCC2`, the IC90 is greater than 7.92 µM. Besides, the IC50 under setting [1] was greater than 7.92 µM.

Regarding `Oc1ccc(Nc2nccc3[nH]c(-c4cccc(F)c4)cc23)cc1`, the concentration for an effect of 90% (IC90) worked out at 8.12 µM. The IC50 (PBLUC_HILL_SLOPE 3.41, PBLUC_R_SQUARED 0.615, read-out: LUCIFERASE INFECTION ASSAY - IC50) stood at 4.27 µM.

For `Cn1c(Nc2ccccc2)nc2cnc(-c3ccc4c(c3)OCO4)cc21`, the IC90 is greater than 10 µM. In addition, under setting [1], the IC50 is greater than 10 µM.

On to `CC(C)(CSc1ccc(F)cc1)NS(=O)(=O)c1ccc(Cl)cc1`, for which the IC90 is greater than 10 µM. Where the note is “FFLUC_HILL_SLOPE 2.37, FFLUC_R_SQUARED 0.607, HEPG2TOX_HILL_SLOPE 7.41, HEPG2TOX_R_SQUARED 0.381, PBLUC_HILL_SLOPE 2.26, 0.933, PBLUC_R_SQUARED 0.368, 0.781, read-out: LUCIFERASE INFECTION ASSAY - IC50”, the half-maximal inhibitory concentration (IC50) came out at 4.38 µM.

As for `O=C(Nc1ccc(Cl)cc1)n1ccc(/C=C/c2ncc(C(F)(F)F)cc2Cl)n1`, the IC90 is greater than 7.72 µM. The IC50 (HEPG2TOX_HILL_SLOPE 28.5, HEPG2TOX_R_SQUARED 0.883, PBLUC_HILL_SLOPE 15.5, PBLUC_R_SQUARED 0.352, read-out: LUCIFERASE INFECTION ASSAY - IC50) was determined as 7.23 µM.

Regarding `Cc1cc(C)nc(-n2[nH]c3[nH]c(-c4cccc5ccccc45)cc(=O)c3c2=O)n1`, the IC90 stood at 1.99 µM. For the same molecule, the IC50 (HEPG2TOX_HILL_SLOPE 0.872, HEPG2TOX_R_SQUARED 0.686, PBLUC_HILL_SLOPE 1.74, PBLUC_R_SQUARED 0.695, read-out: LUCIFERASE INFECTION ASSAY - IC50) amounted to 0.566 µM.

In the case of `CN(C)c1nc(N)c2c(N)nc3c(cc(O)n3C(=O)NC34CC5CC(CC(C5)C3)C4)c2c1C#N`, the IC90 was greater than 10 µM. The IC50 under setting [1] came to 5.64 µM.

For `Cc1ccc(NC(=O)CSc2ccc(Nc3ccc(C)cc3)nn2)cc1`, the IC90 was greater than 9.05 µM. Further, the IC50 under setting [1] was greater than 9.05 µM.

As to `CCc1cc(=O)oc2cc(OCc3csc(N(C(C)=O)c4cccc(C)c4)n3)ccc12`, the IC90 is greater than 10 µM. The IC50 under setting [1] was greater than 10 µM.

Take `C=S(NC(=O)Nc1ccc(Cl)cc1)c1sc(Cl)c2c1C(=O)CCC2` (configuration not stated): the IC90 was greater than 8.22 µM. The IC50 under setting [1] was greater than 8.22 µM.

`C/C(=N\n1c(-c2cccc(Br)c2)cs/c1=N\c1ccc(Cl)cc1Cl)c1ccc2c(c1)OCO2`: the IC90 is greater than 10 µM. Moreover, the IC50 (HEPG2TOX_HILL_SLOPE 4.14, HEPG2TOX_R_SQUARED 0.54, PBLUC_HILL_SLOPE 9.69, PBLUC_R_SQUARED 0.311, read-out: LUCIFERASE INFECTION ASSAY - IC50) amounted to 9.72 µM.

Turning to `COc1cc2c(C#N)c(N3CCN(c4ccccc4OC)CC3)nc(N)c2c(N)n1`, the IC90 was found to be 4.7 µM. The IC50 (HEPG2TOX_HILL_SLOPE 3.01, HEPG2TOX_R_SQUARED 0.942, PBLUC_HILL_SLOPE 1.46, PBLUC_R_SQUARED 0.909, read-out: LUCIFERASE INFECTION ASSAY - IC50) is 1.04 µM.

`CO/N=C1\CC(C)(C)Cc2c(-c3ccn(S(=O)(=O)c4ccccc4Cl)n3)sc(SC)c21`: the IC90 is greater than 6.65 µM. Under setting [1], the IC50 was greater than 6.65 µM.

Turning to `CN(C)S(=O)(=O)c1ccc2nnn(OCCCOc3ccc(C(C)(C)C)cc3)c2c1`, the IC90 was greater than 10 µM. Under setting [1], the IC50 is greater than 10 µM.

As to `Cc1ccc(/N=C/c2cc3ccccc3nc2Sc2ccc(C)cc2)cc1`, the IC90 was greater than 10 µM. Under setting [1], the IC50 is greater than 10 µM.

As for `COc1ccccc1/C=C(/C(=O)OC(C(=O)c1c[nH]c2ccccc12)c1ccccc1)c1ccccc1` (configuration not stated), the IC90 was greater than 10 µM. Also, for the setting “FFLUC_HILL_SLOPE 11.3, FFLUC_R_SQUARED 0.353, PBLUC_HILL_SLOPE 1.04, PBLUC_R_SQUARED 0.705, read-out: LUCIFERASE INFECTION ASSAY - IC50”, the IC50 was determined as 3.6 µM.

As to `COc1ccc(OCC(N)=NC(=S)Nc2cccc(C(F)(F)F)c2)cc1`, the IC90 is greater than 8.61 µM. Moreover, the IC50 (PBLUC_HILL_SLOPE 17.2, PBLUC_R_SQUARED 0.0649, read-out: LUCIFERASE INFECTION ASSAY - IC50) was greater than 8.61 µM.

`C=CCNC(=O)C(C)Sc1nnc(-c2ccc(C)cc2)c(-c2ccc(C)cc2)n1` (configuration not stated): the IC90 is 2.06 µM. The IC50 (PBLUC_HILL_SLOPE 3.18, 2.13, PBLUC_R_SQUARED 0.929, 0.663, read-out: LUCIFERASE INFECTION ASSAY - IC50) was found to be 0.807 µM.

In the case of `Cc1cccc(-c2nc(-c3cc(C)n(-c4nnc[nH]4)c3C)cs2)c1`, the IC90 is greater than 10 µM. Besides, the IC50 under setting [1] turned out to be 9.67 µM.

In the case of `Cc1nn(-c2ccccc2)c2c1C(c1c[nH]c3ccccc13)N1C(=N2)C(N2CCN(c3ccc(F)cc3)CC2)=Nc2ccccc21` (configuration not stated), the IC90 is greater than 10 µM. Besides, under setting [1], the IC50 is greater than 10 µM.

As to `CC(Sc1nccn1-c1cccc(F)c1)C(=O)Nc1ccc(N2CCOCC2)cc1` (configuration not stated), the IC90 is greater than 10 µM. Also, the IC50 (FFLUC_HILL_SLOPE 11.8, FFLUC_R_SQUARED 0.0999, read-out: LUCIFERASE INFECTION ASSAY - IC50) was greater than 10 µM.

For `CN(C)c1ccc(C2CNC(c3ccc(Cl)c([N+](=O)[O-])c3)c3[nH]c4ccccc4c32)cc1` (configuration not stated), the IC90 was greater than 10 µM. For the same molecule, the IC50 (PBLUC_HILL_SLOPE 1.52, PBLUC_R_SQUARED 0.0896, read-out: LUCIFERASE INFECTION ASSAY - IC50) was greater than 10 µM.

`C(=C\c1nc2ccccc2s1)/c1ccc(CN2CCCCC2)cc1`: the IC90 is 2.91 µM. Also, the IC50 (PBLUC_HILL_SLOPE 1.51, PBLUC_R_SQUARED 0.817, read-out: LUCIFERASE INFECTION ASSAY - IC50) came to 0.679 µM.

With `COCCn1cnc2cnc(Nc3cccc(F)c3)cc21`, the IC90 is greater than 10 µM. Further, the IC50 under setting [1] is greater than 10 µM.

These data come from ChEMBL document CHEMBL4483862, “Open-source discovery of chemical leads for next-generation chemoprotective antimalarials” (2018).
